Source: article PMC7645366 (EMBO Molecular Medicine, 2020)
Several values for one entry are separate records, joined by “and”; a condition that tells them apart may be missing. Equal values may be shown once. No end group written: not given here.

Assays:
[1] = target: T1, SLO (Streptococcus pyogenes serotype M1, UniProt P0C0I3); format: binding
[2] = tested on: BSA; assay: ELISA, binding of plate-bound MRC-1 peptides to BSA (negative control); conditions: plate-bound peptide
Protocol: Briefly, 96‐well flat‐bottomed plates (Sigma, UK) were coated overnight with 10 μM of MRC‐1 peptides in coating buffer (15 mM Na2CO3, 35 mM NaHCO3, pH 9.6). Wells were blocked with 200 μl of 10% (v/v) FBS in PBS for 2 h and then washed three times with PBS, 0.05% (v/v) Tween 20 (Sigma). 50 μl of purified PLY, LLO, and SLO (0–1 μM) in PBS was added and incubated at 37°C for 1 h. 1 μM BSA was added to control wells. Wells were washed with PBS and bound proteins were detected by adding 100 μl of mouse α‐PLY (1:1,000), mouse α‐SLO (1:400), and rabbit α‐LLO (1:1,500) (Abcam), respectively, in blocking buffer. Plates were incubated with 100 μl of secondary anti‐rabbit/anti‐mouse IgG HRP (1:2,000) dilution in blocking buffer. Bound antibodies were detected by adding 100 μl of tetramethylbenzidine substrate solution for 30 min. Phosphoric acid (1 M) was used as the stop solution and absorbance was measured at 450 nm.

[3] = target: PLY (Streptococcus pneumoniae serotype 4, UniProt P0C2J9); format: cell-based
[4] = target: T1, SLO; format: cell-based
[5] = tested on: S. pneumoniae strain T4; assay: Hemolytic activity of whole bacteria, S. pneumoniae T4; format: cell-based, Streptococcus pneumoniae; conditions: 100 μM peptide
Protocol: (§1) Human blood from anonymous healthy donors (obtained from Karolinska University Hospital) was diluted 1:100 in PBS with 0.5 mM DTT and mixed 1:1 with twofold serial dilutions of 10^8 CFUs of bacteria or 1 μg/ml purified bacterial toxins in 96‐well plates. The MRC‐1 peptides were serially diluted 10‐fold (1–1,000 μM) in PBS and added to the wells prior to addition of blood. The blood was co‐incubated with whole bacteria or purified toxins at 37°C for 1 h, and after 50 min, 0.1% triton X‐100 was added to the positive control wells. Cells were spun down at 400 g for 15 min and the absorbance of the supernatants was measured at 540 nm in a microplate reader. Percentage of lysis compared to the toxin alone was calculated. All samples were assayed in triplicates.

[6] = tested on: S. pyogenes type M1T1; assay: Hemolytic activity of whole bacteria, S. pyogenes; format: cell-based, Streptococcus pyogenes; conditions: 100 μM peptide
Protocol: All samples were assayed in triplicates.

[7] = target: T2, LLO (Listeria monocytogenes serovar 1/2a, UniProt P13128); assay: Live imaging of cytolysis of THP-1 macrophages by LLO; format: cell-based; conditions: 0.5 μg/ml LLO, 100 μM, 20 min
[8] = target: T2, LLO; assay: Cytokine ELISA, THP-1 macrophages stimulated with LLO; format: cell-based; conditions: 18 h; for IL-8 levels in THP-1 macrophages: LLO 0.5 μg/ml, 100uM
Protocol: Human monocytic leukemia THP‐1 cells (ATCC TIB‐202) were cultivated in R10 medium and maintained at density of 10^6 cells/ml. For differentiation into macrophages, THP‐1 cells were treated for 48 h with 20 ng/ml of phorbol myristate acetate (Sigma).

[9] = target: T1, SLO; format: cell-based; remark: listed apart in the source
[10] = tested on: S.pneumoniae T4RΔply; assay: Co-localization of intracellular T4RΔply with MRC-1 and LC3B in DCs; format: cell-based, Streptococcus pneumoniae; conditions: for % bacteria colocalized with MRC-1 / % bacteria colocalized with LC3B / number of bacteria (of n=50) colocalized with LC3B / number of bacteria (of n=50) colocalized with MRC-1: T4RΔply in DCs
[11] = tested on: S. pneumoniae T4; assay: Zebrafish embryo infection model, survival; format: in vivo, zebrafish (Danio renio); conditions: 500 CFU T4 microinjected into yolk sac, co-administration 1 nM
Protocol: The AB strain of zebrafish embryos (Danio renio) was collected within first hours post‐fertilization (hpf) from the zebrafish core facility at Karolinska Institutet, Stockholm, and maintained at 28.5°C in E3 medium (5.0 mM NaCl, 0.17 mM KCl, 0.33 mM CaCl2, 0.33 mM MgSO4). […] Microinjection was done using a glass needle (Harvard apparatus, Quebec, Canada) controlled with a micromanipulator Narishige MN‐153 (Narishige International Limited, London, UK) connected to an Eppendorf FemtoJet express (Eppendorf AG, Hamburg, Germany). The injected volume was previously optimized by injecting of a droplet into mineral oil over a scale bar. The embryos were randomly assigned to the treatment groups and a minimum of 156 embryos/group was used. To determine the actual number of bacteria in the injected volume, one drop was collected into the agar plates, and 1–3 embryos were digested and plated just immediately after injection. The infected embryos were incubated at 30°C for 96 h. The infected embryos were monitored for disease symptoms and survival under a stereomicroscope twice a day up to 4 days post‐injection. Absence of heartbeat and movement was interpreted as a sign of death. All experiments were performed thrice.

[12] = tested on: LC3B; format: cell-based, human
[13] = target: T1, SLO
[14] = target: T2, LLO; assay: Hemolysis assay with purified LLO; conditions: 1 μg/ml toxin
Protocol: as §1

[15] = Lung histology (H&E) and clinical symptoms after intranasal administration; conditions: mice
Protocol: (F) Hematoxylin and eosin (H&E) staining of mouse lungs at 24 h post intranasal

T2 sequence (P13128 25-529): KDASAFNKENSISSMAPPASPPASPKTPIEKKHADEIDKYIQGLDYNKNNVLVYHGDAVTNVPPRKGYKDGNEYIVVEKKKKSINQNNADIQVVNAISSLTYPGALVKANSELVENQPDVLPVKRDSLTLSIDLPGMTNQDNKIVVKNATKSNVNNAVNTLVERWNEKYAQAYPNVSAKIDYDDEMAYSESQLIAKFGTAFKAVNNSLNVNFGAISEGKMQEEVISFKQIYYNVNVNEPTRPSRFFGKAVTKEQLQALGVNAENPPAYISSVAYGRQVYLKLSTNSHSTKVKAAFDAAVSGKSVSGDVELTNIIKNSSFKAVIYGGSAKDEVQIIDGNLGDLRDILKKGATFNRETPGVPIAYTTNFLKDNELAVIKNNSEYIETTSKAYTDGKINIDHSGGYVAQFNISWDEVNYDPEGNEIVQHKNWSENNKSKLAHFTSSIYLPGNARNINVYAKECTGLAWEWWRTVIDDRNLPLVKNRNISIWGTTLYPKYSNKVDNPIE
Sequence of PLY (P0C2J9 whole entry, looked up): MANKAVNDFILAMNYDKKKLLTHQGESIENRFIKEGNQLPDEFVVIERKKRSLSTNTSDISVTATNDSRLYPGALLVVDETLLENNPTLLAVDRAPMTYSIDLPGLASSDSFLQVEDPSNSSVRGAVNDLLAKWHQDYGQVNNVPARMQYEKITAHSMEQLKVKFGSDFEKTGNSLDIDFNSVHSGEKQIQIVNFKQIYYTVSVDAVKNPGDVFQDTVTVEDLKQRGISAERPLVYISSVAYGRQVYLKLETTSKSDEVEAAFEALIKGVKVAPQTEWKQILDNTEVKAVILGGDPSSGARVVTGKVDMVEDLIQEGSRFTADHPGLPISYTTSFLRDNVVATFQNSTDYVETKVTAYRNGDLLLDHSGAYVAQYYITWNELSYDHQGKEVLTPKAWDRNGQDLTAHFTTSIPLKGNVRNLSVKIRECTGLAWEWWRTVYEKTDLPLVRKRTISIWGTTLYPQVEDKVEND
T1 sequence (P0C0I3 34-571 limits assumed): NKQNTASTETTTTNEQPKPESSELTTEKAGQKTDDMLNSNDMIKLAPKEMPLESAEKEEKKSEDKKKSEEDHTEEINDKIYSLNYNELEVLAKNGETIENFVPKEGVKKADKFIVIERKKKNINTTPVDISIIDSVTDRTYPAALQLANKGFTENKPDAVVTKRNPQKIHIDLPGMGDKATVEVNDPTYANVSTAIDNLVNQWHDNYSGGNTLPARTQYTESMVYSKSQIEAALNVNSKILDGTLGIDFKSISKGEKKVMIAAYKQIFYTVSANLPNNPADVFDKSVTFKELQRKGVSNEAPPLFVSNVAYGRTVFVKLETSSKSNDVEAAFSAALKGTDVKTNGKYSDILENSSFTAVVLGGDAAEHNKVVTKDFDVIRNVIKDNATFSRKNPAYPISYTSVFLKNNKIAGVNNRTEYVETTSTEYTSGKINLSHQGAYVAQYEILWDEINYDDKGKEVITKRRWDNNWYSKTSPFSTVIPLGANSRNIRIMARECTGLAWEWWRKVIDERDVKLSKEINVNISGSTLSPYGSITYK

Which results are given for FTWSDGSPVSYEN [P2]?
binding to SLO in ELISA [1]: bound dose‐dependently; binding to BSA in ELISA [2]: not to BSA; inhibition of PLY-induced hemolysis [3]: up to 50%; inhibition of hemolysis induced by purified PLY [3]: up to 50%; IC50 ([3]; read-out: ED50 (median effective dose) vs purified PLY, human, blood, 60 min): 6.6 µM; inhibition of hemolysis induced by purified SLO [4]: up to 50%; IC50 ([4]; read-out: ED50 (median effective dose) vs purified SLO, human, blood, 60 min): 9.8 µM; hemolytic activity of pneumococcal strain T4 [5]: significantly reduced; %hemolytic activity relative to positive control (0.1% Triton X) ([5]; T4 312500 CFU/ml, experiment 1 of 3): -0.1%; %hemolytic activity relative to positive control (0.1% Triton X) ([5]; T4 312500 CFU/ml, experiment 2 of 3): 4%; %hemolytic activity relative to positive control (0.1% Triton X) ([5]; T4 312500 CFU/ml, experiment 3 of 3): 4.3%; %hemolytic activity relative to positive control (0.1% Triton X) ([5]; T4 625000 CFU/ml, experiment 1 of 3): -0.4%; %hemolytic activity relative to positive control (0.1% Triton X) ([5]; T4 625000 CFU/ml, experiment 2 of 3): 4.5%; %hemolytic activity relative to positive control (0.1% Triton X) ([5]; T4 625000 CFU/ml, experiment 3 of 3): 4.7%; %hemolytic activity relative to positive control (0.1% Triton X) ([5]; T4 12500000 CFU/ml, experiment 1 of 3): -0.7%; %hemolytic activity relative to positive control (0.1% Triton X) ([5]; T4 12500000 CFU/ml, experiment 2 of 3): 4.6%; %hemolytic activity relative to positive control (0.1% Triton X) ([5]; T4 12500000 CFU/ml, experiment 3 of 3): 4.6%; %hemolytic activity relative to positive control (0.1% Triton X) ([5]; T4 25000000 CFU/ml, experiment 1 of 3): 0.2%; %hemolytic activity relative to positive control (0.1% Triton X) ([5]; T4 25000000 CFU/ml, experiment 2 of 3): 4.4%; %hemolytic activity relative to positive control (0.1% Triton X) ([5]; T4 25000000 CFU/ml, experiment 3 of 3): 20%; %hemolytic activity relative to positive control (0.1% Triton X) ([5]; T4 50000000 CFU/ml, experiment 1 of 3): 15.6%; %hemolytic activity relative to positive control (0.1% Triton X) ([5]; T4 50000000 CFU/ml, experiment 2 of 3): 19.9%; %hemolytic activity relative to positive control (0.1% Triton X) ([5]; T4 50000000 CFU/ml, experiment 3 of 3): 19.6%; %hemolytic activity relative to positive control (0.1% Triton X) ([5]; T4 100000000 CFU/ml, experiment 1 of 3): 32%; %hemolytic activity relative to positive control (0.1% Triton X) ([5]; T4 100000000 CFU/ml, experiment 2 of 3): 30.8%; %hemolytic activity relative to positive control (0.1% Triton X) ([5]; T4 100000000 CFU/ml, experiment 3 of 3): 19.1%; hemolytic activity of S. pyogenes type M1T1 [6]: significantly reduced; cytolysis by LLO in live imaging [7]: protected the cells from cytolysis; release of IL‐8, TNF‐α and IL‐12 by THP-1 macrophages, LLO ([8]; 0.5 μg/ml toxin, 100 μM peptide): significantly reduced; IL-8 levels in THP-1 macrophages ([8]; experiment 1 of 3): 437.8 pg/mL; IL-8 levels in THP-1 macrophages ([8]; experiment 2 of 3): 441.8 pg/mL; IL-8 levels in THP-1 macrophages ([8]; experiment 3 of 3): 448.5 pg/mL; release of IL‐8, TNF‐α and IL‐12 by THP-1 macrophages, SLO [9]: significantly reduced; IL-8 levels in THP-1 macrophages ([9]; 100uM, 18 h): 426.5 pg/mL and 475.1 pg/mL and 490.7 pg/mL; co-localization of T4RΔply in DCs ([10]; DCs, 100 μM peptide, MOI 10, 2 h): had no effect; % bacteria colocalized with MRC-1 ([10]; 100 μM peptide, n=50 bacteria, experiment 1 of 2): 6%; % bacteria colocalized with LC3B ([10]; experiment 1 of 2): 94%; number of bacteria (of n=50) colocalized with LC3B ([10]; experiment 1 of 2): 47; number of bacteria (of n=50) colocalized with MRC-1 ([10]; experiment 1 of 2): 3; % bacteria colocalized with LC3B ([10]; experiment 2 of 2): 92%; % bacteria colocalized with MRC-1 ([10]; experiment 2 of 2): 8%; number of bacteria (of n=50) colocalized with LC3B ([10]; experiment 2 of 2): 46; number of bacteria (of n=50) colocalized with MRC-1 ([10]; experiment 2 of 2): 4; survival of infected zebrafish embryos [11]: significantly improved the survival; expression of LC3B-I and LC3B-II, western blotting [12]: induced higher expression; cell death of macrophages induced by SLO, LDH release [13]: significantly reduced cell death; inhibition of hemolysis induced by purified LLO ([14]; at concentrations ranging from 10 to 100 μM): up to 50%; IC50 ([14]; read-out: ED50 (median effective dose) vs purified LLO, hemolysis, regression analysis): 22.3 µM; toxicity by lung histology analysis (H&E) ([15]; 24 h post intranasal administration, 5 µg peptide/mouse): not toxic; clinical symptoms ([15]; 24 h post‐administration): did not develop any clinical symptoms
